Data taken from publication PMC7717600, “Novel [(N-alkyl-3-indolylmethylene)hydrazono]oxindoles arrest cell cycle and induce cell apoptosis by inhibiting CDK2 and Bcl-2: synthesis, biological evaluation and in silico studies” (Journal of Enzyme Inhibition and Medicinal Chemistry, 2020).
Like-named read-outs stand apart in the source and are kept apart here.

Key:
[1] = test system: HCC-2998; test: NCI SRB screening; type: cell-based, human
[2] = test system: LOX IMVI; test: NCI SRB screening; type: cell-based, human
[3] = test system: MDA-MB-435; test: NCI SRB screening; type: cell-based
[4] = biological target: CDK2 (Homo sapiens, UniProt P24941); test: CDK2 inhibition assay; type: biochemical; conditions: CDK2, mean ± SE of three
Experimental: and of the test compound in a final volume of 10 µL, all in a reaction buffer (60 mM HEPES-NaOH, pH 7.5, 3 mM MgCl2, 3 mM MnCl2, 3 μM Na-orthovanadate, 1.2 mM DTT, 2.5 μg / 50 μl PEG20.000). The reactions were stopped by adding 5 µL of 3 % aq. H3PO4. Aliquots were spotted onto P-81 phosphocellulose (Whatman), washed 3× with 0.5 % aq. H3PO4 and finally air-dried. Kinase inhibition was quantified using a FLA-7000 digital image analyzer (Fujifilm).

[5] = test system: HOP-62; conditions: for TGI: HOP-62
[6] = test system: NCI-H226; conditions: for TGI: NCI-H226
[7] = test system: NCI-H23; conditions: for TGI: NCI-H23
[8] = test system: NCI-H522; conditions: for TGI: NCI-H522
[9] = test system: HCT-116; conditions: for TGI: HCT-116
[10] = test system: HCT-15; conditions: for TGI: HCT-15
[11] = test system: CCRF-CEM; test: cells; conditions: Homo sapiens
[12] = test system: SF-295; conditions: for TGI: SF-295
[13] = test system: U251; conditions: for TGI: U251
[14] = test system: UACC-62; conditions: for TGI: UACC-62
[15] = test system: OVCAR-4
[16] = test system: NCI/ADR-RES
[17] = test system: A498; conditions: for TGI: A498
[18] = test system: RXF 393; conditions: for TGI: RXF 393
[19] = test system: DU-145; conditions: for TGI: DU-145
[20] = test system: HS 578T
[21] = test system: MDA-MB-468; conditions: for TGI: MDA-MB-468
[22] = test system: RPMI-8226; test: cells; conditions: Homo sapiens
[23] = test system: HOP-62; test: cells; conditions: Homo sapiens
[24] = test system: NCI-H226; test: cells; conditions: Homo sapiens
[25] = test system: NCI-H522; test: cells; conditions: Homo sapiens
[26] = test system: SNB-19; test: cells; conditions: Homo sapiens
[27] = test system: U251; test: cells; conditions: Homo sapiens
[28] = test system: MALME-3M; test: cells; conditions: Homo sapiens
[29] = test system: SK-MEL-2; test: cells; conditions: Homo sapiens
[30] = test system: SK-MEL-28; test: cells; conditions: Homo sapiens
[31] = test system: SK-MEL-5; test: cells; conditions: Homo sapiens
[32] = test system: UACC-257; test: cells; conditions: Homo sapiens
[33] = test system: OVCAR-3; test: cells; conditions: Homo sapiens
[34] = test system: SK-OV-3; test: cells; conditions: Homo sapiens, SK-OV-3, read-out: LC50
[35] = test system: 786-0; test: cells; conditions: Homo sapiens
[36] = test system: A498; test: cells; conditions: Homo sapiens
[37] = test system: ACHN; test: cells; conditions: Homo sapiens
[38] = test system: RXF 393; test: cells; conditions: Homo sapiens
[39] = test system: SN12C; test: cells; conditions: Homo sapiens
[40] = test system: DU-145; test: cells; conditions: Homo sapiens
[41] = test system: MCF7; test: cells; conditions: Homo sapiens
[42] = test system: BT-549; test: cells; conditions: Homo sapiens
[43] = test system: MDA-MB-468; test: cells; conditions: Homo sapiens

CCCn1cc(C=NN=C2C(=O)Nc3ccc(C)cc32)c2ccccc21 [Compound 8a]
TGI ([1]; HCC-2998): 5.14 µM | GI % ([1]; HCC-2998, 10 μM): 53% | Growth Percent ([1]; HCC-2998, 1.00E-5 Molar): 46.95% | TGI ([1]; HCC-2998, listed as D - 795311 / 1): 5.14E-6 Molar | GI50 ([1]; Homo sapiens, HCC-2998): 2.09 µM | TGI [2]: 3.06 µM | Growth Percent ([2]; 1.00E-5 Molar): 4.42% | GI50 ([2]; Homo sapiens): 1.26 µM | TGI ([2]; listed as D - 795311 / 1): 3.06E-6 Molar | GI50 ([3]; Homo sapiens, MDA-MB-435): 1.5 µM | TGI ([3]; MDA-MB-435): 2.96 µM | GI % ([3]; MDA-MB-435, 10 μM): 127% | Growth Percent ([3]; MDA-MB-435, 1.00E-5 Molar): -26.64% | TGI ([3]; MDA-MB-435, listed as D - 795311 / 1): 2.96E-6 Molar | IC50 [4]: 0.85 ± 0.03 µM | TGI [5]: 25.0 µM | GI % ([5]; HOP-62, 10 μM): 25% | Growth Percent ([5]; HOP-62, 1.00E-5 Molar): 75.35% | TGI ([5]; listed as D - 795311 / 1): 2.50E-5 Molar | TGI [6]: 20.6 µM | Growth Percent ([6]; NCI-H226, 1.00E-5 Molar): 92.04% | TGI ([6]; listed as D - 795311 / 1): 2.06E-5 Molar | TGI [7]: 38.2 µM | GI % ([7]; NCI-H23, 10 μM): 52% | Growth Percent ([7]; NCI-H23, 1.00E-5 Molar): 48.03% | TGI ([7]; listed as D - 795311 / 1): 3.82E-5 Molar | TGI [8]: 6.59 µM | GI % ([8]; NCI-H522, 10 μM): 86% | Growth Percent ([8]; NCI-H522, 1.00E-5 Molar): 13.81% | TGI ([8]; listed as D - 795311 / 1): 6.59E-6 Molar | TGI [9]: 4.17 µM | GI % ([9]; HCT-116, 10 μM): 60% | Growth Percent ([9]; HCT-116, 1.00E-5 Molar): 39.85% | TGI ([9]; listed as D - 795311 / 1): 4.17E-6 Molar | CC50 ([9]; human, 48 h): 9.96 µM | TGI [10]: 42.2 µM | GI % ([10]; HCT-15, 10 μM): 77% | Growth Percent ([10]; HCT-15, 1.00E-5 Molar): 23.04% | TGI ([10]; listed as D - 795311 / 1): 4.22E-5 Molar | GI50 [11]: 1.94 µM | CC50 ([11]; read-out: LC50): > 100 µM | TGI [12]: 96.6 µM | GI % ([12]; SF-295, 10 μM): 29% | Growth Percent ([12]; SF-295, 1.00E-5 Molar): 71.12% | TGI ([12]; listed as D - 795311 / 1): 9.66E-5 Molar | TGI [13]: 17.3 µM | GI % ([13]; U251, 10 μM): 60% | Growth Percent ([13]; U251, 1.00E-5 Molar): 39.96% | TGI ([13]; listed as D - 795311 / 1): 1.73E-5 Molar | TGI [14]: 12.10 µM | GI % ([14]; UACC-62, 10 μM): 60% | Growth Percent ([14]; UACC-62, 1.00E-5 Molar): 40.39% | TGI ([14]; listed as D - 795311 / 1): 1.21E-5 Molar | GI50 ([15]; OVCAR-4): 0.93 µM | TGI ([15]; OVCAR-4): 25.60 µM | GI % ([15]; OVCAR-4, 10 μM): 58% | Growth Percent ([15]; OVCAR-4, 1.00E-5 Molar): 41.83% | TGI ([15]; OVCAR-4, listed as D - 795311 / 1): 2.56E-5 Molar | TGI [16]: 89.90 µM | GI % ([16]; 10 μM): 24% | Growth Percent ([16]; 1.00E-5 Molar): 76.32% | TGI ([16]; listed as D - 795311 / 1): 8.99E-5 Molar | TGI [17]: 7.50 µM | GI % ([17]; A498, 10 μM): 43% | Growth Percent ([17]; A498, 1.00E-5 Molar): 57.21% | TGI ([17]; listed as D - 795311 / 1): 7.50E-6 Molar | TGI [18]: 7.94 µM | GI % ([18]; RXF 393, 10 μM): 89% | Growth Percent ([18]; RXF 393, 1.00E-5 Molar): 11.38% | TGI ([18]; listed as D - 795311 / 1): 7.94E-6 Molar | TGI [19]: 40.60 µM | GI % ([19]; DU-145, 10 μM): 34% | Growth Percent ([19]; DU-145, 1.00E-5 Molar): 66.43% | TGI ([19]; listed as D - 795311 / 1): 4.06E-5 Molar | TGI [20]: >100 µM | GI % ([20]; 10 μM): 26% | Growth Percent ([20]; 1.00E-5 Molar): 74.02% | TGI ([20]; listed as D - 795311 / 1): > 1.00E-4 Molar | TGI [21]: 5.78 µM | GI % ([21]; MDA-MB-468, 10 μM): 75% | Growth Percent ([21]; MDA-MB-468, 1.00E-5 Molar): 25.19% | TGI ([21]; listed as D - 795311 / 1): 5.78E-6 Molar | GI50 ([22]; RPMI-8226): 1.33 µM | CC50 ([22]; RPMI-8226, read-out: LC50): > 100 µM | GI50 ([23]; HOP-62): 4.17 µM | CC50 ([23]; HOP-62, read-out: LC50): > 100 µM | GI50 ([24]; NCI-H226): 2.95 µM | CC50 ([24]; NCI-H226, read-out: LC50): > 100 µM | GI50 ([25]; NCI-H522): 1.81 µM | CC50 ([25]; NCI-H522, read-out: LC50): > 100 µM | GI50 ([26]; SNB-19): 4.24 µM | CC50 ([26]; SNB-19, read-out: LC50): > 100 µM | GI50 ([27]; U-251): 3.51 µM | CC50 ([27]; U-251, read-out: LC50): > 100 µM | GI50 [28]: 1.88 µM | CC50 ([28]; read-out: LC50): > 100 µM | GI50 ([29]; SK-MEL-2): 2.42 µM | CC50 ([29]; SK-MEL-2, read-out: LC50): > 100 µM | GI50 ([30]; SK-MEL-28): 4.7 µM | CC50 ([30]; SK-MEL-28, read-out: LC50): > 100 µM | GI50 ([31]; SK-MEL-5): 2.86 µM | CC50 ([31]; SK-MEL-5, read-out: LC50, SK-MEL-5): 47.4 µM | GI50 ([32]; UACC-257): 12.3 µM | CC50 ([32]; UACC-257, read-out: LC50): > 100 µM | GI50 ([33]; OVCAR-3): 1.36 µM | CC50 ([33]; OVCAR-3, read-out: LC50): > 100 µM | CC50 [34]: > 100 µM | GI50 ([35]; 786-0): 5.94 µM | CC50 ([35]; 786-0, read-out: LC50): > 100 µM | GI50 ([36]; A498): 1.37 µM | CC50 ([36]; A498, read-out: LC50): > 100 µM | GI50 [37]: 3.56 µM | CC50 ([37]; read-out: LC50): > 100 µM | GI50 ([38]; RXF 393): 2.17 µM | CC50 ([38]; RXF 393, read-out: LC50): > 100 µM | GI50 [39]: 3.2 µM | CC50 ([39]; read-out: LC50): > 100 µM | GI50 ([40]; DU-145): 3.88 µM | CC50 ([40]; DU-145, read-out: LC50): > 100 µM | GI50 ([41]; MCF7): 1.54 µM | CC50 ([41]; MCF7, read-out: LC50): > 100 µM | GI50 ([42]; BT-549): 1.79 µM | CC50 ([42]; BT-549, read-out: LC50): > 100 µM | GI50 ([43]; MDA-MB-468): 1.69 µM | CC50 ([43]; MDA-MB-468, read-out: LC50): 79.4 µM
